Where “and” joins values, the source holds several entries; their conditions need not be identical. Equal entries are not always repeated. Toxic doses and inconclusive results are not listed. Rule as the data show it: active = T/C of 150% or more; inactive = T/C below 125%.
Test system: L1210 leukemia ip in BDF1 mice, survival T/C
Assay: NCI In Vivo Anticancer Drug Screen. Data for tumor model L1210 Leukemia (intraperitoneal) in B6D2F1 (BDF1) mice
Conditions: endpoint: mean survival time, higher = longer survival
Outline: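 Transplantable tumor model; survival measured in treated vs vehicle control mice. Value = treated/control.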

[1] = dose: 100.0 mg/kg/injection, schedule: Q04DX003 (ip), vehicle: Klucel (hydroxypropylcellulose) (HPC)
[2] = dose: 10.0 mg/kg/injection, schedule: Q01DX001 (ip), vehicle: saline
[3] = dose: 20.0 mg/kg/injection, schedule: Q01DX001 (ip), vehicle: saline
[4] = dose: 40.0 mg/kg/injection, schedule: Q01DX001 (ip), vehicle: saline
[5] = dose: 100.0 mg/kg/injection, schedule: Q01DX009 (ip), vehicle: saline
[6] = dose: 100.0 mg/kg/injection, schedule: Q04DX003 (ip), vehicle: saline
[7] = dose: 200.0 mg/kg/injection, schedule: Q01DX009 (ip), vehicle: saline
[8] = dose: 200.0 mg/kg/injection, schedule: Q04DX003 (ip), vehicle: saline
[9] = dose: 100.0 mg/kg/injection, schedule: Q01DX009 (ip), vehicle: Klucel (hydroxypropylcellulose) (HPC)
[10] = dose: 200.0 mg/kg/injection, schedule: Q01DX009 (ip), vehicle: Klucel (hydroxypropylcellulose) (HPC)
[11] = dose: 200.0 mg/kg/injection, schedule: Q04DX003 (ip), vehicle: Klucel (hydroxypropylcellulose) (HPC)
[12] = dose: 400.0 mg/kg/injection, schedule: Q04DX003 (ip), vehicle: Klucel (hydroxypropylcellulose) (HPC)
[13] = dose: 100.0 mg/kg/injection, schedule: Q04DX003 (ip), vehicle: saline with Tween-80
[14] = dose: 50.0 mg/kg/injection, schedule: Q01DX009 (ip), vehicle: saline with Tween-80
[15] = dose: 100.0 mg/kg/injection, schedule: Q01DX009 (ip), vehicle: saline with Tween-80

Measured: T/C

O=C(C[n+]1ccccc1)c1ccc(S(=O)(=O)c2ccccc2)cc1
inactive: dose: 12.5 mg/kg/injection, schedule: Q04DX003 (ip), vehicle: Klucel (hydroxypropylcellulose) (HPC) 95 % of control | dose: 25.0 mg/kg/injection, schedule: Q04DX003 (ip), vehicle: Klucel (hydroxypropylcellulose) (HPC) 93 % of control | dose: 50.0 mg/kg/injection, schedule: Q04DX003 (ip), vehicle: Klucel (hydroxypropylcellulose) (HPC) 89 % of control | [1] 94 % of control

CCC1CCN(CC)CC1
inactive: [2] 101 % of control | dose: 10.0 mg/kg/injection, schedule: Q01DX009 (ip), vehicle: saline 92 % of control and 102 % of control | dose: 10.0 mg/kg/injection, schedule: Q04DX002 (ip), vehicle: saline 100 % of control and 109 % of control | dose: 10.0 mg/kg/injection, schedule: Q04DX003 (ip), vehicle: saline 102 % of control | [3] 101 % of control | dose: 20.0 mg/kg/injection, schedule: Q01DX009 (ip), vehicle: saline 101 % of control and 108 % of control | dose: 20.0 mg/kg/injection, schedule: Q04DX002 (ip), vehicle: saline 100 % of control and 117 % of control | dose: 20.0 mg/kg/injection, schedule: Q04DX003 (ip), vehicle: saline 103 % of control | [4] 95 % of control | dose: 40.0 mg/kg/injection, schedule: Q01DX009 (ip), vehicle: saline 94 % of control | dose: 40.0 mg/kg/injection, schedule: Q04DX002 (ip), vehicle: saline 94 % of control and 102 % of control | dose: 40.0 mg/kg/injection, schedule: Q04DX003 (ip), vehicle: saline 102 % of control

Cn1c(=O)c2c(nc(OCCC3CCCCC3)n2C)n(C)c1=O
inactive: dose: 50.0 mg/kg/injection, schedule: Q01DX001 (ip), vehicle: other 90 % of control | dose: 100.0 mg/kg/injection, schedule: Q01DX001 (ip), vehicle: other 95 % of control | dose: 200.0 mg/kg/injection, schedule: Q01DX001 (ip), vehicle: other 90 % of control | dose: 400.0 mg/kg/injection, schedule: Q01DX001 (ip), vehicle: other 93 % of control

O=C(Nc1cccc(C2=NCCN2)c1)c1ccc(-c2ccc(C(=O)Nc3cccc(C4=NCCN4)c3)cc2)cc1
inactive: dose: 50.0 mg/kg/injection, schedule: Q01DX Z (ip), vehicle: carboxymethylcellulose (CMC) 101 % of control | dose: 65.0 mg/kg/injection, schedule: Q01DX Z (ip), vehicle: methylcellulose (MC) 121 % of control | dose: 100.0 mg/kg/injection, schedule: Q01DX Z (ip), vehicle: carboxymethylcellulose (CMC) 120 % of control | dose: 100.0 mg/kg/injection, schedule: Q01DX Z (ip), vehicle: methylcellulose (MC) 113 % of control | dose: 400.0 mg/kg/injection, schedule: Q01DX Z (ip), vehicle: carboxymethylcellulose (CMC) 117 % of control

CCSC1C(O)OC(CO)C(O)C1O (stereo not drawn)
inactive: dose: 100.0 mg/kg/injection, schedule: Q01DX001 (ip), vehicle: saline 95 % of control | dose: 200.0 mg/kg/injection, schedule: Q01DX001 (ip), vehicle: saline 106 % of control | dose: 400.0 mg/kg/injection, schedule: Q01DX001 (ip), vehicle: saline 104 % of control

Nc1nc(=O)n(CC(=O)c2ccco2)cc1F
inactive: [5] 100 % of control | [6] 95 % of control | [7] 94 % of control | [8] 97 % of control | dose: 400.0 mg/kg/injection, schedule: Q04DX003 (ip), vehicle: saline 93 % of control

COc1ccccc1C(=O)N/N=C(\C)c1cccc2ccccc12
inactive: [9] 108 % of control | [10] 110 % of control | dose: 400.0 mg/kg/injection, schedule: Q01DX009 (ip), vehicle: Klucel (hydroxypropylcellulose) (HPC) 96 % of control

COc1cccc2c1C(=O)c1c(O)c3c(c(O)c1C2=O)C[C@@](O)(/C(C)=N/NS(C)(=O)=O)C[C@@H]3OC1CC(N)C(O)C(C)O1 (stereo partly drawn)
inactive: dose: 0.25 mg/kg/injection, schedule: Q04DX003 (ip), vehicle: water 103 % of control | dose: 0.5 mg/kg/injection, schedule: Q04DX003 (ip), vehicle: water 103 % of control | dose: 1.0 mg/kg/injection, schedule: Q04DX003 (ip), vehicle: water 103 % of control | dose: 2.0 mg/kg/injection, schedule: Q04DX003 (ip), vehicle: water 105 % of control | dose: 4.0 mg/kg/injection, schedule: Q01DX009 (ip), vehicle: water 105 % of control | dose: 4.0 mg/kg/injection, schedule: Q04DX003 (ip), vehicle: water 107 % of control | dose: 8.0 mg/kg/injection, schedule: Q01DX009 (ip), vehicle: water 113 % of control | dose: 8.0 mg/kg/injection, schedule: Q04DX003 (ip), vehicle: water 101 % of control and 113 % of control | dose: 16.0 mg/kg/injection, schedule: Q01DX009 (ip), vehicle: water 121 % of control | dose: 16.0 mg/kg/injection, schedule: Q04DX003 (ip), vehicle: water 104 % of control and 115 % of control | dose: 64.0 mg/kg/injection, schedule: Q01DX009 (ip), vehicle: water 97 % of control

Oc1ccc2ccccc2c1-c1c(O)ccc2ccccc12
inactive: dose: 12.5 mg/kg/injection, schedule: Q01DX Z (ip), vehicle: other 106 % of control | dose: 25.0 mg/kg/injection, schedule: Q01DX Z (ip), vehicle: other 103 % of control | dose: 50.0 mg/kg/injection, schedule: Q01DX Z (ip), vehicle: other 106 % of control | [9] 97 % of control | dose: 100.0 mg/kg/injection, schedule: Q01DX Z (ip), vehicle: other 116 % of control | [1] 111 % of control | [10] 94 % of control | [11] 94 % of control | [12] 103 % of control

c1ccc(-c2nnn(-c3ccccc3)n2)cc1
inactive: [13] 94 % of control | dose: 200.0 mg/kg/injection, schedule: Q04DX003 (ip), vehicle: saline with Tween-80 93 % of control | dose: 400.0 mg/kg/injection, schedule: Q04DX003 (ip), vehicle: saline with Tween-80 98 % of control

O=[N+]([O-])c1ccc(CN=NCc2ccc(Cl)cc2Cl)c(Cl)c1
inactive: [14] 90 % of control | [15] 100 % of control | dose: 200.0 mg/kg/injection, schedule: Q01DX009 (ip), vehicle: saline with Tween-80 100 % of control | dose: 400.0 mg/kg/injection, schedule: Q01DX009 (ip), vehicle: saline with Tween-80 95 % of control

CCOC(=O)/C(O)=C\c1ccc(OC)n[n+]1[O-]
inactive: dose: 35.0 mg/kg/injection, schedule: Q04DX002 (ip), vehicle: Klucel (hydroxypropylcellulose) (HPC) 104 % of control | dose: 70.0 mg/kg/injection, schedule: Q04DX002 (ip), vehicle: Klucel (hydroxypropylcellulose) (HPC) 104 % of control | dose: 140.0 mg/kg/injection, schedule: Q04DX002 (ip), vehicle: Klucel (hydroxypropylcellulose) (HPC) 104 % of control

Cc1ccc2c(c1)N(CCCN1CC[N+](C)(C)CC1)c1ccccc1S2
inactive: [2] 101 % of control | [3] 95 % of control | [4] 98 % of control | dose: 80.0 mg/kg/injection, schedule: Q01DX001 (ip), vehicle: saline 98 % of control

CCCCCCCCCCCCCCCCCCn1cnc2c(N)ncnc21
inactive: dose: 12.5 mg/kg/injection, schedule: Q01DX005 (ip), vehicle: other 105 % of control | dose: 25.0 mg/kg/injection, schedule: Q01DX005 (ip), vehicle: other 97 % of control | dose: 50.0 mg/kg/injection, schedule: Q01DX005 (ip), vehicle: other 102 % of control | dose: 100.0 mg/kg/injection, schedule: Q01DX005 (ip), vehicle: other 103 % of control | dose: 200.0 mg/kg/injection, schedule: Q01DX005 (ip), vehicle: other 108 % of control

Clc1ccc(N=Cc2ccc(C=Nc3ccc(Cl)c(Cl)c3)cc2)cc1Cl
inactive: [1] 97 % of control | dose: 200.0 mg/kg/injection, schedule: Q01DX009 (ip), vehicle: saline sonified 89 % of control | [11] 89 % of control | [12] 96 % of control

CC1CCCC(C)N1NC1=NCCO1 (stereo not drawn)
inactive: dose: 25.0 mg/kg/injection, schedule: Q01DX009 (ip), vehicle: saline with Tween-80 96 % of control | [14] 98 % of control | [15] 97 % of control | [13] 100 % of control

O=C(Oc1ccc([N+](=O)[O-])cc1)c1ccc(C[n+]2ccccc2)cc1
inactive: dose: 50.0 mg/kg/injection, schedule: Q01DX009 (ip), vehicle: saline 97 % of control | [5] 97 % of control and 104 % of control | [6] 97 % of control | [7] 100 % of control and 106 % of control | [8] 90 % of control

From PubChem BioAssay AID248 (DTP/NCI, 2004)
